# Reference: patent US20230085307A1, “PYRIDAZINONE COMPOUND AND HERBICIDE” (NISSAN CHEMICAL CORPORATION, priority 2019, published 2023)
# Experiments:
# barnyard grass [1] = experiment: Test Example 3: herbicidal effect by foliage application, Wagner pot (Table 18, symbol H); type: in vivo, barnyard grass (Echinochloa crus-galli)
# In short: (§1)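 Plants were sown in alluvial soil held under 0.1–0.5 cm standing water and grown 14 days in a greenhouse at 25–30 °C. An emulsifiable formulation, water-diluted to the set dose, was then sprayed onto the foliage, and effects were scored three weeks later using previously defined criteria.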
# Chinese sprangletop = experiment: Test Example 3: herbicidal effect by foliage application, Wagner pot (Table 18, symbol D); type: in vivo, chinese sprangletop (Leptochloa chinensis)
# In short: as §1
# rice flat sedge = experiment: Test Example 3: herbicidal effect by foliage application, Wagner pot (Table 18, symbol E); type: in vivo, rice flat sedge (Cyperus iria)
# In short: as §1
# southern crabgrass [2] = experiment: Test Example 4: herbicidal effect by soil treatment (Table 19, symbol F); type: in vivo, southern crabgrass (Digitaria ciliaris)
# In short: (§2)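 Scoring uses the grading scale of an earlier test, three weeks post-application. Treatment consists of spraying a diluted emulsion formulation across the surface of sterilized diluvial soil in which seeds are buried near 1.5 cm deep; boxes are kept in a greenhouse between 25° C. and 30° C.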
# green foxtail [3] = experiment: Test Example 4: herbicidal effect by soil treatment (Table 19, symbol G); type: in vivo, green foxtail (Setaria viridis)
# In short: as §2
# barnyard grass [4] = experiment: Test Example 4: herbicidal effect by soil treatment (Table 19, symbol H); type: in vivo, barnyard grass (Echinochloa crus-galli)
# In short: as §2
# wild oat [5] = experiment: Test Example 4: herbicidal effect by soil treatment (Table 19, symbol I); type: in vivo, wild oat (Avena fatua)
# In short: as §2
# blackgrass [6] = experiment: Test Example 4: herbicidal effect by soil treatment (Table 19, symbol J); type: in vivo, blackgrass (Alopecurus myosuroides)
# In short: as §2
# Italian ryegrass [7] = experiment: Test Example 4: herbicidal effect by soil treatment (Table 19, symbol K); type: in vivo, Italian ryegrass (Lolium multiflorum)
# In short: as §2
# windgrass [8] = experiment: Test Example 4: herbicidal effect by soil treatment (Table 19, symbol L); type: in vivo, windgrass (Apera spica-venti)
# In short: as §2
# velvetleaf [9] = experiment: Test Example 4: herbicidal effect by soil treatment (Table 19, symbol M); type: in vivo, velvetleaf (Abutilon theophrasti)
# In short: as §2
# redroot pigweed [10] = experiment: Test Example 4: herbicidal effect by soil treatment (Table 19, symbol N); type: in vivo, redroot pigweed (Amaranthus retroflexus)
# In short: as §2
# lambsquarters [11] = experiment: Test Example 4: herbicidal effect by soil treatment (Table 19, symbol O); type: in vivo, lambsquarters (Chenopodium album)
# In short: as §2
# chickweed [12] = experiment: Test Example 4: herbicidal effect by soil treatment (Table 19, symbol P); type: in vivo, common chickweed (Stellaria media)
# In short: as §2
# persian speedwell [13] = experiment: Test Example 4: herbicidal effect by soil treatment (Table 19, symbol R); type: in vivo, Persian speedwell (Veronica persica)
# In short: as §2
# southern crabgrass [14] = experiment: Test Example 5: herbicidal effect by foliage application, plastic box (Table 20, symbol F); type: in vivo, southern crabgrass (Digitaria ciliaris); conditions: foliage application, evaluated three weeks after application
# In short: (§3)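 Post-emergence foliar test in sterilized diluvial soil. Compound applied as water-diluted emulsion at a predetermined rate to 14-day-old plants; evaluation at three weeks.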
# green foxtail [15] = experiment: Test Example 5: herbicidal effect by foliage application, plastic box (Table 20, symbol G); type: in vivo, green foxtail (Setaria viridis); conditions: foliage application, evaluated three weeks after application
# In short: as §3
# barnyard grass [16] = experiment: Test Example 5: herbicidal effect by foliage application, plastic box (Table 20, symbol H); type: in vivo, barnyard grass (Echinochloa crus-galli); conditions: foliage application, evaluated three weeks after application
# In short: as §3
# wild oat [17] = experiment: Test Example 5: herbicidal effect by foliage application, plastic box (Table 20, symbol I); type: in vivo, wild oat (Avena fatua); conditions: foliage application, evaluated three weeks after application
# In short: as §3
# blackgrass [18] = experiment: Test Example 5: herbicidal effect by foliage application, plastic box (Table 20, symbol J); type: in vivo, blackgrass (Alopecurus myosuroides); conditions: foliage application, evaluated three weeks after application
# In short: as §3
# Italian ryegrass [19] = experiment: Test Example 5: herbicidal effect by foliage application, plastic box (Table 20, symbol K); type: in vivo, Italian ryegrass (Lolium multiflorum); conditions: foliage application, evaluated three weeks after application
# In short: as §3
# windgrass [20] = experiment: Test Example 5: herbicidal effect by foliage application, plastic box (Table 20, symbol L); type: in vivo, windgrass (Apera spica-venti); conditions: foliage application, evaluated three weeks after application
# In short: as §3
# velvetleaf [21] = experiment: Test Example 5: herbicidal effect by foliage application, plastic box (Table 20, symbol M); type: in vivo, velvetleaf (Abutilon theophrasti); conditions: foliage application, evaluated three weeks after application
# In short: as §3
# redroot pigweed [22] = experiment: Test Example 5: herbicidal effect by foliage application, plastic box (Table 20, symbol N); type: in vivo, redroot pigweed (Amaranthus retroflexus); conditions: foliage application, evaluated three weeks after application
# In short: as §3
# lambsquarters [23] = experiment: Test Example 5: herbicidal effect by foliage application, plastic box (Table 20, symbol O); type: in vivo, lambsquarters (Chenopodium album); conditions: foliage application, evaluated three weeks after application
# In short: as §3
# chickweed [24] = experiment: Test Example 5: herbicidal effect by foliage application, plastic box (Table 20, symbol P); type: in vivo, common chickweed (Stellaria media); conditions: foliage application, evaluated three weeks after application
# In short: as §3
# persian speedwell [25] = experiment: Test Example 5: herbicidal effect by foliage application, plastic box (Table 20, symbol R); type: in vivo, Persian speedwell (Veronica persica); conditions: foliage application, evaluated three weeks after application
# In short: as §3
# [26] = amount of applied herbicide 221 g/ha
# [27] = amount of applied herbicide 320 g/ha
smiles,measurement,setting,value
Cc1ccc2sc(-c3ccc(C#N)cc3)c(-c3c(O)c(C)nn(C)c3=O)c2c1 [2-146],herbicidal effect on H: barnyard grass,barnyard grass [1]; [26],4 (Herbicidal rate of 70% or more and less than 90%)
same,herbicidal effect on D: Chinese sprangletop,Chinese sprangletop; [26],0 (Herbicidal rate of 5% or less (almost no effect))
same,herbicidal effect on E: rice flat sedge,rice flat sedge; [26],3 (Herbicidal rate of 40% or more and less than 70%)
same,"F: southern crabgrass, herbicidal effect rating",southern crabgrass [2]; [26],0 (Herbicidal rate of 5% or less (almost no effect))
same,"G: green foxtail, herbicidal effect rating",green foxtail [3]; [26],0 (Herbicidal rate of 5% or less (almost no effect))
same,"H: barnyard grass, herbicidal effect rating",barnyard grass [4]; [26],0 (Herbicidal rate of 5% or less (almost no effect))
same,"I: wild oat, herbicidal effect rating",wild oat [5]; [26],0 (Herbicidal rate of 5% or less (almost no effect))
same,"J: blackgrass, herbicidal effect rating",blackgrass [6]; [26],0 (Herbicidal rate of 5% or less (almost no effect))
same,"K: Italian ryegrass, herbicidal effect rating",Italian ryegrass [7]; [26],0 (Herbicidal rate of 5% or less (almost no effect))
same,"L: windgrass, herbicidal effect rating",windgrass [8]; [26],0 (Herbicidal rate of 5% or less (almost no effect))
same,"M: velvetleaf, herbicidal effect rating",velvetleaf [9]; [26],0 (Herbicidal rate of 5% or less (almost no effect))
same,"N: redroot pigweed, herbicidal effect rating",redroot pigweed [10]; [26],4 (Herbicidal rate of 70% or more and less than 90%)
same,"O: lambsquarters, herbicidal effect rating",lambsquarters [11]; [26],0 (Herbicidal rate of 5% or less (almost no effect))
same,"P: chickweed, herbicidal effect rating",chickweed [12]; [26],5 (Herbicidal rate of 90% or more (almost completely withered))
same,"R: persian speedwell, herbicidal effect rating",persian speedwell [13]; [26],5 (Herbicidal rate of 90% or more (almost completely withered))
same,herbicidal effect on F: southern crabgrass (criteria 0-5),southern crabgrass [14]; 221 g/ha,0 (Herbicidal rate of 5% or less (almost no effect))
same,herbicidal effect on G: green foxtail (criteria 0-5),green foxtail [15]; 221 g/ha,4 (Herbicidal rate of 70% or more and less than 90%)
same,herbicidal effect on H: barnyard grass (criteria 0-5),barnyard grass [16]; 221 g/ha,4 (Herbicidal rate of 70% or more and less than 90%)
same,herbicidal effect on I: wild oat (criteria 0-5),wild oat [17]; 221 g/ha,3 (Herbicidal rate of 40% or more and less than 70%)
same,herbicidal effect on J: blackgrass (criteria 0-5),blackgrass [18]; 221 g/ha,3 (Herbicidal rate of 40% or more and less than 70%)
same,herbicidal effect on K: Italian ryegrass (criteria 0-5),Italian ryegrass [19]; 221 g/ha,4 (Herbicidal rate of 70% or more and less than 90%)
same,herbicidal effect on L: windgrass (criteria 0-5),windgrass [20]; 221 g/ha,0 (Herbicidal rate of 5% or less (almost no effect))
same,herbicidal effect on M: velvetleaf (criteria 0-5),velvetleaf [21]; 221 g/ha,2 (Herbicidal rate of 20% or more and less than 40%)
same,herbicidal effect on N: redroot pigweed (criteria 0-5),redroot pigweed [22]; 221 g/ha,5 (Herbicidal rate of 90% or more (almost completely withered))
same,herbicidal effect on O: lambsquarters (criteria 0-5),lambsquarters [23]; 221 g/ha,3 (Herbicidal rate of 40% or more and less than 70%)
same,herbicidal effect on P: chickweed (criteria 0-5),chickweed [24]; 221 g/ha,5 (Herbicidal rate of 90% or more (almost completely withered))
same,herbicidal effect on R: persian speedwell (criteria 0-5),persian speedwell [25]; 221 g/ha,5 (Herbicidal rate of 90% or more (almost completely withered))
COc1ccccc1-c1sc2ccc(NC(=O)OC(C)(C)C)cc2c1-c1c(O)c(C)nn(C)c1=O [2-181],herbicidal effect on H: barnyard grass,barnyard grass [1]; [27],2 (Herbicidal rate of 20% or more and less than 40%)
same,herbicidal effect on D: Chinese sprangletop,Chinese sprangletop; [27],3 (Herbicidal rate of 40% or more and less than 70%)
same,herbicidal effect on E: rice flat sedge,rice flat sedge; [27],0 (Herbicidal rate of 5% or less (almost no effect))
same,"F: southern crabgrass, herbicidal effect rating",southern crabgrass [2]; [27],0 (Herbicidal rate of 5% or less (almost no effect))
same,"G: green foxtail, herbicidal effect rating",green foxtail [3]; [27],0 (Herbicidal rate of 5% or less (almost no effect))
same,"H: barnyard grass, herbicidal effect rating",barnyard grass [4]; [27],0 (Herbicidal rate of 5% or less (almost no effect))
same,"I: wild oat, herbicidal effect rating",wild oat [5]; [27],0 (Herbicidal rate of 5% or less (almost no effect))
same,"J: blackgrass, herbicidal effect rating",blackgrass [6]; [27],0 (Herbicidal rate of 5% or less (almost no effect))
same,"K: Italian ryegrass, herbicidal effect rating",Italian ryegrass [7]; [27],0 (Herbicidal rate of 5% or less (almost no effect))
same,"L: windgrass, herbicidal effect rating",windgrass [8]; [27],0 (Herbicidal rate of 5% or less (almost no effect))
same,"M: velvetleaf, herbicidal effect rating",velvetleaf [9]; [27],0 (Herbicidal rate of 5% or less (almost no effect))
same,"N: redroot pigweed, herbicidal effect rating",redroot pigweed [10]; [27],3 (Herbicidal rate of 40% or more and less than 70%)
same,"O: lambsquarters, herbicidal effect rating",lambsquarters [11]; [27],4 (Herbicidal rate of 70% or more and less than 90%)
same,"P: chickweed, herbicidal effect rating",chickweed [12]; [27],4 (Herbicidal rate of 70% or more and less than 90%)
same,"R: persian speedwell, herbicidal effect rating",persian speedwell [13]; [27],4 (Herbicidal rate of 70% or more and less than 90%)
same,herbicidal effect on F: southern crabgrass (criteria 0-5),southern crabgrass [14]; 320 g/ha,0 (Herbicidal rate of 5% or less (almost no effect))
same,herbicidal effect on G: green foxtail (criteria 0-5),green foxtail [15]; 320 g/ha,1 (Herbicidal rate of 5% or more and less than 20%)
same,herbicidal effect on H: barnyard grass (criteria 0-5),barnyard grass [16]; 320 g/ha,0 (Herbicidal rate of 5% or less (almost no effect))
same,herbicidal effect on I: wild oat (criteria 0-5),wild oat [17]; 320 g/ha,0 (Herbicidal rate of 5% or less (almost no effect))
same,herbicidal effect on J: blackgrass (criteria 0-5),blackgrass [18]; 320 g/ha,0 (Herbicidal rate of 5% or less (almost no effect))
same,herbicidal effect on K: Italian ryegrass (criteria 0-5),Italian ryegrass [19]; 320 g/ha,0 (Herbicidal rate of 5% or less (almost no effect))
same,herbicidal effect on L: windgrass (criteria 0-5),windgrass [20]; 320 g/ha,0 (Herbicidal rate of 5% or less (almost no effect))
same,herbicidal effect on M: velvetleaf (criteria 0-5),velvetleaf [21]; 320 g/ha,3 (Herbicidal rate of 40% or more and less than 70%)
same,herbicidal effect on N: redroot pigweed (criteria 0-5),redroot pigweed [22]; 320 g/ha,5 (Herbicidal rate of 90% or more (almost completely withered))
same,herbicidal effect on O: lambsquarters (criteria 0-5),lambsquarters [23]; 320 g/ha,4 (Herbicidal rate of 70% or more and less than 90%)
same,herbicidal effect on P: chickweed (criteria 0-5),chickweed [24]; 320 g/ha,5 (Herbicidal rate of 90% or more (almost completely withered))
same,herbicidal effect on R: persian speedwell (criteria 0-5),persian speedwell [25]; 320 g/ha,5 (Herbicidal rate of 90% or more (almost completely withered))
